According to patent US20220213066A1, “SALTS OF A CLASS OF PYRIMIDINE COMPOUNDS, POLYMORPHS, AND PHARMACEUTICAL COMPOSITIONS THEREOF, PREAPRATION METHODS THEREFOR AND USES THEREOF” (INVENTISBIO CO., LTD., priority 2019, published 2022):
Where a name gives a salt, the structure may show the parent alone.

Experiment: dynamic vapor absorption and desorption analysis (DVS)
Assay type: physicochemical
Details: for weight gain under 80% relative humidity / hygroscopicity of the sample: DVS, 25° C.; for hygroscopicity of the sample: graded in words; for crystalline form of the sample after the DVS test: XRPD overlay before and after DVS test
Procedure: The instrument used in dynamic vapor absorption and desorption analysis (DVS) was DVS Intrinsic (SMS, UK). The sample was placed in the sample basket of the instrument for automatic weighing, then heated to 40° C., and dried under a nitrogen stream to a dm/dt of less than 0.002%. The measurement was started after the temperature was dropped to 25° C., The instrument parameters were as follows.
Time per step: 60 min Sample temperature: 25° C. Cycle: entire cycle
Data storage rate: 5 s Total flow rate: 200 sccm Total flow rate after the test: 200 sccm

SMILES	weight gain under 80% relative humidity	hygroscopicity of the sample	crystalline form of the sample after the DVS test
C=CC(=O)Nc1cc(Nc2nccc(-c3cn(CC(F)(F)F)c4ccccc34)n2)c(OC)cc1N(C)CCN(C)C [crystalline form I of benzenesulfonate]	about 0.41%	slightly hygroscopic	does not change
C=CC(=O)Nc1cc(Nc2nccc(-c3cn(CC(F)(F)F)c4ccccc34)n2)c(OC)cc1N(C)CCN(C)C [crystalline form I of p-toluenesulfonate]	about 0.55%	slightly hygroscopic	does not change
C=CC(=O)Nc1cc(Nc2nccc(-c3cn(CC(F)(F)F)c4ccccc34)n2)c(OC)cc1N(C)CCN(C)C [crystalline form I of phosphate]	about 0.61%	slightly hygroscopic	does not change
C=CC(=O)Nc1cc(Nc2nccc(-c3cn(CC(F)(F)F)c4ccccc34)n2)c(OC)cc1N(C)CCN(C)C [crystalline form I of succinate]	about 0.57%	slightly hygroscopic	does not change
C=CC(=O)Nc1cc(Nc2nccc(-c3cn(CC(F)(F)F)c4ccccc34)n2)c(OC)cc1N(C)CCN(C)C [crystalline form I of sulfate]	about 3.31%	hygroscopic	does not change
C=CC(=O)Nc1cc(Nc2nccc(-c3cn(CC(F)(F)F)c4ccccc34)n2)c(OC)cc1N(C)CCN(C)C [crystalline form III of hydrochloride]	about 1.86%	slightly hygroscopic	does not change
